Laboratory results from US20130324413A1, “METHOD FOR PROMOTING PLANT GROWTH” (SUMITOMO CHEMICAL COMPANY, LIMITED, priority 2011, published 2013).

How the values were obtained:
Assay type in all cases: in vivo
[1] = tested on: corn seeds (cultivar: Kuromochi); assay: Test Example 1: corn seed coating, fresh weight of above-ground part after 18 days; settings: for Average fresh weight of above-ground part: seed coating, grown 18 days at 27° C., non-treated 4.2 g
Procedure: A blank slurry solution containing 5% (V/V) color coat red (Becker Underwood, Inc.), 5% (V/V) CF-Clear (Becker Underwood, Inc.) and 0.4% Maxim XL (Syngenta) was prepared. […] In a 50-ml centrifuge tube (manufactured by BD Japan), 0.48 ml of the slurry solution was placed for each 20 g of corn seeds (cultivar: Kuromochi) and stirred until the solution was dried, thereby coating the seeds. As a control, seeds were coated with the blank slurry solution and used as seeds for a non-treated group. Two treated corn seeds were sown in the culture soil (AISAI) in each plastic pot (55 mm in diameter×58 mm in height) and grown for 18 days under the following conditions: temperature, 27° C.; illuminance, about 5,000 lux; day length, 16 hours. The fresh weight of the above-ground part of the plants was measured. The experiment was performed in four replications for each treatment condition and the average weight per individual was calculated.

[2] = tested on: oilseed rape (Brasicca napus); assay: Test Example 5: oilseed rape field application, percentage of green pods; settings: flowable formulation, 250 g per hectare at day 253 (BBCH 65); assessed day 323 (BBCH 85); non-treated 12.75%
Excerpt: Seeds of oilseed rape (Brasicca napus) were sown and grown. At day 253 after the sowing, at growth stage 65, according to the Biologische Bundesanstalt, Bundessortenamt and CHemical industry (BBCH) scale, the flowable formulation prepared as described in Formulation Example 2 containing compound (1b) was applied in an amount of 250 g per hectare. A plot for the treatment measured 6 m×10 m. This plot was the present compound-treated group. A plot treated with the formulation without compound (1b) was used as the non-treated group, in which plants were cultivated in the same manner as in the present compound-treated group.
At day 323 after the sowing, when almost all the plants entered growth stage 85, according to the BBCH scale, the percentage of pods remaining green among the pods of the plants was examined and determined in both the present compound-treated and non-treated groups.

[3] = tested on: corn seeds (cultivar: Kuromochi); assay: Test Example 6: corn seed coating, low-temperature stress, fresh weight of above-ground part; settings: for Average fresh weight of above-ground part: low-temperature stress 3±2° C. 7 days, non-treated 1.18 g
Procedure: A blank slurry solution containing 5% (V/V) color coat red (Becker Underwood, Inc.), 5% (V/V) CF-Clear (Becker Underwood, Inc.) and 0.4% Maxim XL (Syngenta) was prepared. […] In a 50-ml centrifuge tube (manufactured by BD Japan), 0.48 ml of the slurry solution was placed for each 20 g of corn seeds (cultivar: Kuromochi) and stirred until the solution was dried, thereby coating the seeds. As a control, seeds were coated with the blank slurry solution and used for a non-treated group. Two treated corn seeds were sown in the culture soil (AISAI) in each plastic pot (55 mm in diameter×58 mm in height) and grown for 4 days under the following conditions: temperature, 27° C.; illuminance, 5,000 lux; day length, 16 hours. These were subjected to the test. The pots at day 4 after the sowing were placed in a phytotron under the following conditions in order to expose the plants to low-temperature stress for 7 days. Conditions: “temperature, 3±2° C.; day length, 16 hours; illuminance, about 5,000 lux; humidity, 35 to 80%” The plants were grown for another 7 days under the following conditions: temperature, 27° C.; humidity, 50 to 75%, illuminance, about 5,000 lux; day length, 16 hours. Then the fresh weight of the above-ground part of the plants was measured. The experiment was performed in four replications for each treatment condition and the average weight per individual was calculated.

[4] = tested on: Corn (cultivar: PIONEER 31N27); assay: Test Example 8: corn seedling spraying, low-temperature stress, fresh weight of above-ground part; settings: for Average fresh weight of above-ground part: low-temperature stress 2±2° C. 5 days, non-treated 0.79 g
Procedure: Corn seeds (cultivar: PIONEER 31N27) were sown in the culture soil (AISAI) in plastic pots (55 mm in diameter×58 mm in height) and grown for a week under the following conditions to obtain corn seedlings: temperature, 20 to 25° C.; humidity, 50 to 75%; illuminance, about 5,000 lux; day length, 16 hours.
A flowable formulation of the compound (1b) was obtained by adding 120 mg of a mixture of white carbon and a polyoxyethylene alkyl ether sulfate ammonium salt (weight ratio of 1:1) and 300 μl of water to 0.5 mg of compound (1b), followed by fine grinding by a wet grinding method. This flowable formulation was diluted with 50 ml of water, to which RINO (manufactured by NIHON NOHYAKU) was added as a sticker to 5,000-fold dilution, whereby a spray solution was obtained. A sufficient amount of the spray solution was applied to the corn seedlings by using an automatic spraying machine. As a control, a flowable formulation without compound (1b) was prepared and then sprayed to the non-treated group.
Subsequently, the corn seedlings treated with the spray solution were placed in a phytotron under the following conditions in order to expose the plants to low-temperature stress for 5 days. • Conditions: “temperature, 2±2° C.; lighting hour, 16 hours; • illuminance, about 5,000 lux; humidity, 35 to 80%”
The plants were then grown for another 4 days under the following conditions: temperature, 25 to 28° C.; humidity, 50 to 75%, illuminance, about 5,000 lux; day length, 16 hours. Then the fresh weight of the above-ground part of the plants was measured. The experiment was performed in four replications for each treatment condition and the average weight per individual was calculated.

CNC(=O)C(OC)c1ccccc1COc1cc(C)ccc1C (racemic) [Compound (1b), N-methyl-2-[2-(2,5-dimethylphenoxy)methyl]phenyl-2-methoxyacetamide]
Relative value (fresh weight of above-ground part) ([1]; 12.5 g/ of seeds, non-treated = 100): 105% | fresh weight of the above-ground part as compared with the control group ([1]; amount ranging from 10 g to 50 g per 100 kg of seeds): increased | Average fresh weight of above-ground part ([1]; amount of compound 10 g/ of seeds): 4.4 g | Average fresh weight of above-ground part ([1]; amount of compound 12.5 g/ of seeds): 4.4 g | Average fresh weight of above-ground part ([1]; amount of compound 25 g/ of seeds): 5.0 g | Average fresh weight of above-ground part ([1]; amount of compound 50 g/ of seeds): 4.5 g | percentage of green pods [2]: 22.25% | Average fresh weight of above-ground part ([3]; seed coating 10 g): 1.33 g | Average fresh weight of above-ground part ([3]; seed coating 25 g): 1.30 g | Average fresh weight of above-ground part ([3]; seed coating 50 g): 1.29 g | Average fresh weight of above-ground part ([3]; seed coating): 1.34 g | fresh weight of the above-ground part as compared with the control group ([3]; plants exposed to low-temperature stress, 10 g to 50 g per 100 kg of seeds): an increase | fresh weight of the above-ground part as compared with the non-treated group ([4]; plants exposed to low-temperature stress, concentration range of 10 ppm to 100 ppm): increased | Average fresh weight of above-ground part ([4]; spray 10 ppm): 0.89 g | Average fresh weight of above-ground part ([4]; spray 30 ppm): 0.94 g | Average fresh weight of above-ground part ([4]; spray 100 ppm): 0.90 g
